Measured values taken from patent US20090149332A1, “METHODS FOR DETERMINING THE ACTIVITY OF ADAM-TS PROTEASES USING THIOPEPTOLIDES” (SANOFI-AVENTIS DEUTSCHLAND GMBH, priority 2005, published 2009).
[ ]: non-standard residue; d: D form. The star is where a group is joined. Dnp = O=[N+]([O-])c1ccc(*)c([N+](=O)[O-])c1; Mca = COc1ccc2c(CC(=O)*)cc(=O)oc2c1; Nva = CCC[C@H](N)C(=O)O; Dap = NC[C@H](N)C(=O)O; Mob = COc1ccc(C*)cc1

Tests used:
Assay type in all cases: biochemical
ADAMTS-1 = experiment: Colorimetric thiopeptolide conversion assay, Ellman's reaction with DTNB (Example 2); parameters: key: +: Increase in the optical signal was observed over 5 minutes; details: absorption at 415 nm for 5 min
Experimental: (§1) TNCB Buffer (see Example 1)
(§2) ADAMTS (Invitek Gesellschaft für Biotechnik & Biodesign mbH, Berlin, Germany) 5 μg of ADAMTS-1 were diluted with 2200 μL, and 5 μg of ADAMTS-4 were diluted with 600 μl of TNCB buffer.
(§3) 1) DTNB Solution (5,5′-dithiobis(2-nitrobenzoic Acid):
(§4) A 40 mM stock solution in DMSO was prepared:
(§5) Then 27.5 μL of DTNB stock solution were diluted with 522 μL of water.
(§6) A 100 mM stock solution in DMSO was prepared. For use, 55 μL of thiopeptilide stock solution were diluted with 500 μL of TNCB buffer.
(§7) Immediately before use, 550 μl of DTNB were mixed with 550 μl of thiopeptilide.
(§8) The measurements were carried out in 96-multiwell plates (half area plates, flat bottom, clear, polystyrene, No. 3695) (Corning Costar, Acton, USA).
(§9) 10 μL of enzyme solution and 10 μL of H2O were mixed, and the reaction was started by adding 10 μL of substrate solution.
(§10) Microtiter plate photometer: Molecular Devices Sunnyvale, USA. SpectraMax 190.

ADAMTS-4 = experiment: as above; parameters: key: +: Increase in the optical signal was observed over 5 minutes; details: absorption at 415 nm for 5 min
Experimental: as §1, §2, §3, §4, §5, §6, §7, §8, §9, §10

MMP-3cd [1] = target: T1, MMP-3cd (Homo sapiens, UniProt P08254); experiment: as above; parameters: key: +: Increase in the optical signal was observed over 5 minutes; details: absorption at 415 nm for 5 min
T1 construct: The catalytic domains of the human recombinant MMP-3 and MMP-8 protein, MMP-3cd and MMP-8cd; purchased Biomol International L. P. Pennsylvania, USA SE-109
T1 sequence (P08254 100-272 limits assumed): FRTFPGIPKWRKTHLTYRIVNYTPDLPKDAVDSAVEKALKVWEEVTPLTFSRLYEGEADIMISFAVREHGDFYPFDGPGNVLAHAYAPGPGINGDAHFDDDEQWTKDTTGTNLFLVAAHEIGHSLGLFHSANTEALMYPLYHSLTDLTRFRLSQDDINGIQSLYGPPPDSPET
Experimental: as §1, §3, §4, §5, §6, §7, §8, §9, §10

MMP-8cd [2] = target: T2, MMP-8cd (Homo sapiens, UniProt P22894); experiment: as above; parameters: key: +: Increase in the optical signal was observed over 5 minutes; details: absorption at 415 nm for 5 min
T2 construct: The catalytic domains of the human recombinant MMP-3 and MMP-8 protein, MMP-3cd and MMP-8cd; purchased Biomol International L. P. Pennsylvania, USA SE-255
T2 sequence (P22894 100-262 limits assumed): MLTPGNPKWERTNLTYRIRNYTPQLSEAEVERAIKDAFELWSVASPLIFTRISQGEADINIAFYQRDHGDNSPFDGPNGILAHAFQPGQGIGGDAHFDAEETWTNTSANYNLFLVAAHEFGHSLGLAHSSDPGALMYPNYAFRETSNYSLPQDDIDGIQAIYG
Experimental: as §1, §3, §4, §5, §6, §7, §8, §9, §10

ADAMTS = experiment: Colorimetric thiopeptolide conversion assay (Example 2); details: Example 2, ADAMTS-1 and ADAMTS-4 tested
Experimental: as §1, §2, §3, §4, §5, §6, §7, §8, §9, §10

MMP-3cd [3] = target: T1, MMP-3cd; experiment: Fluorometric substrate conversion assay (Comparative Example 1); parameters: key to Conversion of fluorimetric substrate by MMP-3 cd (increase in the optical signal): +: Increase in the optical signal was observed over 5 minutes; details: for Conversion of fluorimetric substrate by MMP-3 cd (increase in the optical signal): fluorescence measured for 5 minutes, λex/λem per substrate
Experimental: (§11) The catalytic domains of the human recombinant MMP-3 and MMP-8 protein, MMP-3cd and MMP-8cd, can be purchased from, for example, Biomol International L. P. Pennsylvania, USA; catalog number SE-109 and SE-255 respectively. The truncated forms of ADAM-TS1 and ADAM-TS4 protease can likewise be purchased from, for example, Invitek, Gesellschaft für Biotechnik & Biodesign mbH, Berlin, Germany, catalog number 30400402 and 30400102, respectively.
(§12) 100 mM tris(hydroxymethyl)aminomethane, adjusted to pH 7.5 with HCl-100
(§13) 10 mM substrates (see Table) in DMSO, immediately before use, 2 μL of the substrate stock solution were diluted with 130 μL of H2O.
(§14) MMP-3cd (2.3 μg/mL), MMP-8cd (0.6 μg/mL), ADAMTS-1 (2.3 μg/mL) and ADAMTS-4 (3.3 μg/mL) were diluted with TNCB buffer.
(§15) 10 μL of enzyme solution were mixed with 10 μL of H2O, and the reaction was started by adding 10 μL of substrate solution.
(§16) The fluorescence was measured in a TECAN Spectrafluor Plus fluorescence apparatus; Excitation/Emission (see Table). This entailed measuring the fluorescence for 5 minutes on each occasion.

MMP-8cd [4] = target: T2, MMP-8cd; experiment: as above; parameters: key to Conversion of fluorimetric substrate by MMP-8 cd (increase in the optical signal): +: Increase in the optical signal was observed over 5 minutes; details: for Conversion of fluorimetric substrate by MMP-8 cd (increase in the optical signal): fluorescence measured for 5 minutes, λex/λem per substrate
Experimental: as §11, §12, §13, §14, §15, §16

Compound | Conversion of fluorimetric substrate by MMP-3 cd (increase in the optical signal) (MMP-3cd [3]) | Conversion of fluorimetric substrate by MMP-8 cd (increase in the optical signal) (MMP-8cd [4]) | further results
CCOC(=O)CNC(=O)[C@H](CC(C)C)NC(=O)C(CC(C)C)SC(=O)CNC(=O)[C@H](CC(C)C)NC(=O)[C@@H]1CCCN1C(C)=O (stereo partly drawn) [Compound 1, Ac—P-L-G-[(S)-2-mercapto-4-methylpentanoyl]-L-G-OEt] | – | – | Conversion of colorimetric substrate in Ellman's reaction by ADAMTS-1 (ADAMTS-1): +; Conversion of colorimetric substrate in Ellman's reaction by ADAMTS-4 (ADAMTS-4): +; Conversion of colorimetric substrate in Ellman's reaction by MMP-3 cd (MMP-3cd [1]): +; Conversion of colorimetric substrate in Ellman's reaction by MMP-8 cd (MMP-8cd [2]): +; Conversion by ADAMTS (in words) (ADAMTS): converted
CCCC(SC(=O)C(C)NC(=O)[C@H](CC(C)C)NC(=O)[C@@H]1CCCN1C(C)=O)C(=O)N[C@@H](Cc1c[nH]c2ccccc12)C(N)=O (stereo partly drawn) [Compound 2, Ac—P-L-A-[(S)-2-mercaptopentanoyl]-W—NH2] | – | – | Conversion of colorimetric substrate in Ellman's reaction by MMP-3 cd (MMP-3cd [1]): +; Conversion of colorimetric substrate in Ellman's reaction by MMP-8 cd (MMP-8cd [2]): +; Conversion by ADAMTS (in words) (ADAMTS): not converted
Dnp-P-L-G-L-W-A-R—NH2 (Dnp-PLGLWAR-NH2; SMILES CC(C)C[C@H](NC(=O)CNC(=O)[C@H](CC(C)C)NC(=O)[C@@H]1CCCN1c1ccc([N+](=O)[O-])cc1[N+](=O)[O-])C(=O)N[C@@H](Cc1c[nH]c2ccccc12)C(=O)N[C@@H](C)C(=O)N[C@@H](CCCNC(=N)N)C(N)=O) [fluorimetric MMP substrate, Bachem M-1855] | + | – | –
Mca-PLAC(Mob)WAR[Dap](Dnp)-NH2 | + | + | –
Mca-PLAQAV[Dap](Dnp)RSSSR-NH2 | + | – | –
Mca-PLA[Nva][Dap](Dnp)AR-NH2 | + | + | –

The next lines start with results.

Conversion of fluorimetric substrate by MMP-3 cd (increase in the optical signal) (MMP-3cd [3]) | Conversion of fluorimetric substrate by MMP-8 cd (increase in the optical signal) (MMP-8cd [4]) | Compound | further results
+ | + | (7-methoxycoumarin-4-yl)acetyl-Pro-Leu-Gly-Leu-3-(2′,4′-dinitro-phenyl)-L-2,3-diaminopropionyl-Ala-Arg-NH2 [Mca-P-L-G-L-Dap(Dnp)-A-R—NH2] | Conversion with the protease MMP-3 (in words) (MMP-3cd [3]; see experimental section): possible to convert; Conversion with the protease MMP-8 (in words) (MMP-8cd [4]; see experimental section): possible to convert
+ | + | Dnp-P-β-cyclohexyl-A-G-C(Me)-H-A-K—(N-Me-Abz)-NH2 | –
+ | – | Mca-GKPILFFRLK(Dnp)R-NH2 | –
+ | + | Mca-P-β-cyclohexyl-A-G-Nva-H-A-Dpa-NH2 | –
+ | + | Mca-RPLALWR[Dap](Dnp)-NH2 | –
+ | – | Mca-R—P—K—P—V-E-Nval-W—R—K-(Dnp)-NH2 | –
+ | + | Mca-R—P—K—P—Y-A-Nva-Met-K(Dnp)-NH2 | –
+ | + | NBD-eAhx-R—P—K—P-L-A-Nva-W—K(DMACA)-NH2 | –
